The values below come from ChEMBL document CHEMBL1134047, “Binding of a cyclic BIV beta-Tat peptide with its TAR RNA construct” (Bioorg Med Chem Lett, 2001).

In the assay the test system is Nucleic Acid. In words: Binding affinity to the ([…]) BIV TAR RNA target was determined by fluorescence binding study. It is filed as nucleic-acid assay, Bos taurus.

In general, Kd refers to the equilibrium constant for the complex coming apart. The low end stands for tighter binding, the high end for weaker binding. In the case of `CC[C@H](C)[C@H](NC(=O)[C@H](CCCN=C(N)N)NC(=O)[C@H](CCCN=C(N)N)NC(=O)CNC(=O)[C@H](CCCCN)NC(=O)CNC(=O)[C@H](CCCN=C(N)N)NC(=O)[C@@H](NC(=O)CNC(=O)[C@H](CCCN=C(N)N)NC(=O)[C@H]1CCCN1C(=O)[C@H](CCCN=C(N)N)NC(=O)[C@H]1CCCN1C(=O)CNC(=O)[C@H](CO)NC(=O)[C@@H](N)CS)[C@@H](C)O)C(=O)N[C@@H](CCCN=C(N)N)C(N)=O`, the dissociation constant (Kd) came to 1.28 nM.
The result for `CC[C@H](C)[C@@H]1NC(=O)[C@@H](CCCNC(=N)N)NC(=O)[C@H](CCCNC(=N)N)NC(=O)CNC(=O)[C@H](CCCCN)NC(=O)CNC(=O)[C@H](CCCNC(=N)N)NC(=O)[C@@H]([C@@H](C)O)NC(=O)CNC(=O)[C@@H](CCCNC(=N)N)NC(=O)[C@@H]2CCCN2C(=O)[C@@H](CCCNC(=N)N)NC(=O)[C@H]2CCCN2C(=O)CNC(=O)[C@@H](CO)NC(=O)[C@@H](N)CSSC[C@@H](C(=O)O)NC(=O)[C@H](CCCNC(=N)N)NC(=O)[C@@H](CCCNC(=N)N)NC1=O` reads 0.273 nM; that for `CC[C@H](C)[C@H](NC(=O)[C@H](CCCNC(=N)N)NC(=O)[C@H](CCCNC(=N)N)NC(=O)CNC(=O)[C@H](CCCCN)NC(=O)CNC(=O)[C@H](CCCNC(=N)N)NC(=O)[C@@H](NC(=O)CNC(=O)[C@H](CCCNC(=N)N)NC(=O)[C@H]1CCCN1C(=O)[C@H](CCCNC(=N)N)NC(=O)[C@H]1CCCN1C(=O)CNC(=O)[C@@H](N)CO)[C@@H](C)O)C(=O)N[C@@H](CCCNC(=N)N)C(=O)N[C@@H](CCCNC(=N)N)C(=O)O`, 1.32 nM.
